pEC50, pKi: −log10 of the molar value.
Assays:
human MC4-R [1] = biological target: T1, human MC4-R (Homo sapiens, UniProt P32245); assay: cAMP functional assay in HEK-293 T-REx cells expressing human MC4-R, induced with doxycycline 0.1 ng/mL (low density); type: cell-based; conditions: doxycycline 0.1 ng/mL, averages of all comparable assays; for Emax: HEK293-T-REx, maximal cAMP stimulation, NDP-α-MSH = 100%, read-out: Emax; for pEC50: human MC4-R cAMP assay, read-out: Ec50
T1 construct: expressed in transfected cells; host or cells: HEK293 T-REx (tetracycline-regulated, Invitrogen); cell line from Palatin Technologies with license from the University of Michigan
T1 sequence (P32245 whole entry): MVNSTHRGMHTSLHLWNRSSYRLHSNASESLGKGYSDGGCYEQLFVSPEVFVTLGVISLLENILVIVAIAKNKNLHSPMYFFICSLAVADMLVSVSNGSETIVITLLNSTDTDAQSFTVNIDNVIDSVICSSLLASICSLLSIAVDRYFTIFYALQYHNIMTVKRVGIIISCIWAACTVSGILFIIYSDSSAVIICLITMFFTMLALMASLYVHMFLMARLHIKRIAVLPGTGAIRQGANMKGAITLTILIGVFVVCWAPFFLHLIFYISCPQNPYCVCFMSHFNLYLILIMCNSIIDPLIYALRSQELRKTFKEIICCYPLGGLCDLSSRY

human MC4-R [2] = biological target: T1, human MC4-R; assay: Competitive inhibition binding assay with [I125]-NDP-α-MSH or Eu-NDP-α-MSH, membranes of HEK-293 cells expressing recombinant hMC4-R; conditions: human MC4-R; averages of all comparable assays; read-out: Ki
Protocol: A competitive inhibition binding assay was performed using membrane homogenates prepared from HEK-293 cells that express recombinant hMC4-R, hMC3-R, or hMC5-R, and from B-16 mouse melanoma cells (containing endogenous MC1-R). In some instances, HEK-293 cells that express recombinant hMC1-R were employed. In the examples that follow, all MC3-R, MC4-R and MC5-R values are for human recombinant receptors. […] After incubation for 60 minutes at 37° C., the assay mixture was filtered and the membranes washed three times with ice-cold buffer. Filters were dried and counted in a gamma counter for bound radioactivity. […] Maximal specific binding (100%) was defined as the difference in radioactivity (cpm) bound to cell membranes in the absence and presence of 1 μM NDP-α-MSH. […] Ki values for test peptides of the present invention were determined using Graph-Pad Prism® curve-fitting software.
Alternatively, a competitive inhibition binding assay was performed employing Eu-NDP-α-MSH (PerkinElmer Life Sciences catalog No. AD0225) with determination by time-resolved fluorometry (TRF) of the lanthanide chelate. […] After incubation for 90 minutes at 37° C., the reaction was stopped by filtration over AcroWell 96-well filter plates (Pall Life Sciences). The filter plates were washed 4 times with 200 μL of ice-cold phosphate-buffered saline. DELFIA Enhancement solution (PerkinElmer Life Sciences) was added to each well. […] Each assay was conducted in duplicate and mean values were utilized. Ki values were determined by curve-fitting with Graph-Pad Prism® software using a one-site fixed-slope competition binding model.

Row | Emax (human MC4-R [1]) | pKi (human MC4-R [2]) | pEC50 (human MC4-R [1]) | SMILES
1 | 79% | 8.15 |  | CC(=O)N[C@@H](CCCNC(=N)N)C(=O)N[C@H]1CC(=O)NCCCC[C@@H](C(N)=O)NC(=O)[C@H](Cc2c[nH]c3ccccc23)NC(=O)[C@H](CCCNC(=N)N)NC(=O)[C@@H](Cc2ccccc2)NC(=O)[C@H](CCCN)NC1=O [reference compound]
2 | 90% | 8.15 | 8.52 | CC(=O)NCCC[C@@H]1NC(=O)[C@@H](NC(=O)[C@H](CCCNC(=N)N)NC(C)=O)CCC(=O)NCCC[C@@H](C(N)=O)NC(=O)[C@H](Cc2c[nH]c3ccccc23)NC(=O)[C@H](CCCNC(=N)N)NC(=O)[C@@H](Cc2ccccc2)NC1=O [No. 33, Ac-Arg-cyclo(Glu-Orn(Acetyl)-D-Phe-Arg-Trp-Orn)-NH2]
3 | 55% | 8.22 | 8.70 | CC(=O)N[C@@H](CCCNC(=N)N)C(=O)N[C@H]1CCC(=O)NCCC[C@@H](C(=O)O)NC(=O)[C@H](Cc2c[nH]c3ccccc23)NC(=O)[C@H](CCCNC(=N)N)NC(=O)[C@@H](Cc2ccccc2)NC(=O)[C@H](COCc2ccccc2)NC1=O [No. 17, Ac-Arg-cyclo(Glu-Ser(Bzl)-D-Phe-Arg-Trp-Orn)-OH]
